These results are taken from PMC12716008 (Chemistry & Biodiversity, 2025).

Assay [1] has as its system Mycobacterium tuberculosis H37Rv (ATCC 27264). The assay is described as follows: Antimycobacterial activity, microtitre Alamar Blue/Presto Blue assay (MIC). It counts as cell-based. The note with it: 120 h, read-out: M. tb MIC.
The test system of assay [2] is Mycobacterium smegmatis (MC^2 155). Described as above. The assay is classed as cell-based. The conditions noted are these: Mycolicibacterium smegmatis, read-out: M. smeg MIC.
In assay [3] the test system is M. smegmatis biofilm formation. Kind of assay: Mycobacterial biofilm inhibition, microtitre antibiofilm assay (MBIC). The assay is classed as cell-based, Mycobacterium smegmatis. The conditions noted are these: 2–4 days, 37°C, read-out: M. smeg MBIC.
Assay [4] relates to methicillin‐sensitive S. aureus (MSSA) UAMS‐1. The assay is described as follows: Antistaphylococcal activity, broth microdilution (MIC). It counts as cell-based. The note with it: Staphylococcus aureus, read-out: MSSA MIC.
In assay [5] the test system is methicillin‐resistant S. aureus (MRSA) AH1263 or LAC. The assay is described as above. The assay is classed as cell-based, Staphylococcus aureus. The conditions noted are these: Staphylococcus aureus, MRSA, 18 h, read-out: MRSA MIC.
The test system of assay [6] is MSSA UAMS‐1 biofilm formation. Kind of assay: Staphylococcal biofilm inhibition, crystal violet microtitre test (MBIC). It counts as cell-based. The note with it: Staphylococcus aureus, 22 h, read-out: MSSA MBIC.
Assay [7] deals with MRSA AH1263 or LAC biofilm formation. Described as above. The assay is classed as cell-based. The conditions noted are these: Staphylococcus aureus, 22 h, read-out: MRSA MBIC.
The test system of assay [8] is African green monkey kidney (Vero) cell line. Kind of assay: Cytotoxicity, Presto Blue cell viability. The assay is classed as cell-based. The conditions noted are these: Chlorocebus sabaeus, Vero, 72 h, read-out: Vero IC50 ± SD. On the procedure:
(§1) The human monocyte (U937) and African green monkey kidney (Vero) cell lines were used in this study to determine the cytotoxic potential of the quinoline derivatives. The cell lines were purchased from Separation Scientific SA (Pty) Ltd. (Johannesburg, South Africa) and maintained in Roswell Park Memorial Institute (RPMI) 1640 and Eagle's Minimal Essential Medium (EMEM), supplemented with 10% heat‐inactivated foetal bovine serum (FBS), 1% antibiotics (100 U/mL penicillin and 100 µg/mL streptomycin) and 1% antifungal agent (250 µg/mL amphotericin B) as previously described. The cells were cultured at 37°C, 5% CO2 in a humidified incubator to 80% confluency. Detachment was achieved by rinsing the cells with phosphate buffer saline followed by the addition of trypsin–EDTA (0.25% trypsin containing 0.01% EDTA). After 5 min, the reaction was inhibited through the addition of supplemented media.
(§2) Cell viability was assessed through the method described by Lall et al., using Presto Blue as the viability reagent. The cells were seeded in a flat‐bottom 96‐well plate (100 µL) at a concentration of 1.0 × 10^6 cells/mL and allowed to adhere for 24 h. The samples were prepared in DMSO at a stock concentration of 20 mM, serially diluted in complete media and added to the plate at a final concentration range of 0.78–100 µM. Controls included a vehicle control (2% DMSO), an untreated cell control, a 0% control (no cells) and actinomycin D, as the positive control, at a final test concentration range of 3.9 × 10^−4 to 0.05 µg/mL. Cells were incubated for 72 h, followed by the addition of 20 µL of Presto Blue reagent to all the wells and an additional 2 h incubation. Cell viability was measured using a VICTOR Nivo Multimode Microplate Reader (PerkinElmer) at an excitation/emission wavelength of 540/590 nm.
(§3) All results are presented as the mean ± standard deviation (where applicable) of experiments done in triplicate and in two or three independent experiments (as stated in each methods section). Descriptive analysis was used to directly compare and rank the compounds and derivatives based on their activity in the biological assays. Additionally, by comparing the antibiofilm activity to the antibacterial activity and the antibacterial activity to the cytotoxicity, selectivity indices were used to assess the preferential activity of the compounds.

Assay [9] deals with hepatoma (Hep3B). The note with it: cited from earlier work.
The test system of assay [10] is human monocyte (U937) cell line. Kind of assay: Cytotoxicity, Presto Blue cell viability. The assay is classed as cell-based. The note with it: U-937, 72 h, U937 cells, 72 h, read-out: U937 IC50 ± SD. The procedure:
as §1, §2, §3

Converted amounts (≈) assume the structure as drawn. Like-named read-outs stand apart in the source and are kept apart here.

Regarding `O=Cc1ccc2cccc(O)c2n1` [HQ‐4, 8‐hydroxyquinoline‐2‐carbaldehyde, reference compound], the MIC in [1] is 1 µM (≈ 0.173 µg/mL); in assay [2] (MC^2155, 24 h), over 100 µM; in assay [4] (18 h), 370 µM (≈ 64.1 µg/mL); in [5] it was 370 µM (≈ 64.1 µg/mL). Besides, the values for the minimal effective concentration in assay [3], in [6] and in [7] were over 100 µM, 740 µM and 740 µM, respectively. For the same compound, the IC50 in assay [8] was over 100 µM. In addition, the MTS50 in assay [9] was 6.25 ± 0.034 µg/mL.

Regarding `CC(C)=CCOc1cccc2ccc(C=O)nc12` [QD‐12], the MIC in assay [1] (M. tuberculosis H37Rv, 5 days, 37°C) was 100 µM (≈ 24.1 µg/mL); in [2] (MC^2155, M. smegmatis, 24 h, 37°C) it was 100 µM (≈ 24.1 µg/mL); in assay [4] (S. aureus UAMS‐1, 18 h), 266 µM (≈ 64.1 µg/mL); in assay [5] (S. aureus AH1263/LAC), 133 µM (≈ 32 µg/mL). In addition, the minimal effective concentration amounted to 12.5 µM in assay [3] (Mycolicibacterium smegmatis), 531 µM in [6] (S. aureus UAMS‐1 biofilm) and 266 µM in [7] (S. aureus AH1263/LAC biofilm). Moreover, the IC50 in assay [8] (Vero cells) and in [10] was over 100 µM in each case.
